Reference: paper PMC12557365 (Journal of Medicinal Chemistry, 2025)
Where two headings read alike, the source gives them in different places.

How the values were obtained:
[1] = test system: rgSARS-CoV-2 with 3CL^pro mutations; assay type: cell-based, SARS-CoV-2
[2] = test system: SARS-CoV-2 Omicron strains; assay: microbe, parasite or virus in culture; assay type: cell-based; settings: Severe acute respiratory syndrome coronavirus 2, Epithelial cell, read-out: EC90 against the Omicron variants in hAECs
[3] = test system: SARS-CoV-2 variants; assay: microbe, parasite or virus in culture; assay type: cell-based
[4] = molecular target: SARS-CoV-2 3CL^pro (Severe acute respiratory syndrome coronavirus 2, UniProt P0DTD1); assay: biochemical; assay type: biochemical

**Q.** For `CC(C)(C)[C@H](NC(=O)C(F)(F)F)C(=O)N1C[C@H]2[C@@H]([C@H]1C(=O)N[C@H](C#N)C[C@@H]1CCNC1=O)C2(C)C` [nirmatrelvir, reference compound], which EC50 [1] is on record?
**A.** 3.15 ± 1.01 µM

**Q.** With `CCC(CC)COC(=O)[C@H](C)N[P@](=O)(OC[C@H]1O[C@@](C#N)(c2ccc3c(N)ncnn23)[C@H](O)[C@@H]1O)Oc1ccccc1` [remdesivir] as the molecule, how does the EC50 [1] read?
**A.** 2.01 ± 0.08 µM

**Q.** `N#CCn1c(N2CC3(C2)CC(F)(F)C3)c(-c2ccc(F)c(Cl)c2)c(=O)n(-c2cncc(Cl)c2)c1=O` [Compound 17, [5-(3-Chloro-4-fluorophenyl)-3-(5-chloropyridin-3-yl)-6-(6,6-difluoro-2-azaspiro[3.3]-heptan-2-yl)-2,4-dioxo-3,4-dihydropyrimidin-1(2H)-yl]-acetonitrile] was tested. Which EC90 [2] did it give?
**A.** 0.00231 to 0.00241 µM

**Q.** What about the EC50 ([3]; Severe acute respiratory syndrome coronavirus 2, VeroE6/TMPRSS2, read-out: EC50 against various SARS-CoV-2 variants) of the same molecule?
**A.** 0.00227 to 0.0125 µM

**Q.** With `Cn1cnc(Cn2c(=O)[nH]/c(=N\c3cc4cn(C)nc4cc3Cl)n(Cc3cc(F)c(F)cc3F)c2=O)n1` [ensitrelvir] as the molecule, how does the EC50 [3] read?
**A.** 0.259 ± 0.041 µM

**Q.** With `Cc1cncc(-n2c(=O)c(Cc3cc(F)c(F)c(F)c3)c(N3CCCC3)n(CC#N)c2=O)c1` [Compound 5, 2-(3-(5-Methylpyridin-3-yl)-2,4-dioxo-6-(pyrrolidin-1-yl)-5-(3,4,5-trifluorobenzyl)-3,4-dihydropyrimidin-1(2H)-yl)-acetonitrile] as the molecule, how does the “decrease in activity versus compound 4” value [4] read?
**A.** > 10 -fold
